The source of these data is patent US20150111737A1, “SYNERGISTIC PESTICIDAL COMPOSITIONS AND RELATED METHODS” (Dow AgroSciences LLC, priority 2013, published 2015).

Structures are written as SMILES.

In the assay the test system is diamondback moth, Plutella xylostella. Description: Cabbage leaf bioassay (track sprayer) against second instar diamondback moth; synergy judged by Colby's equation. Format: in vivo. The conditions noted are these: single active, dose rate 0.0025 weight %, 400 L/Ha spray. The text has this:
The method described in Colby S. R., “Calculating Synergistic and Antagonistic Responses of Herbicide Combinations,” Weeds, 1967, 15, 20-22 was used to determine an existence of synergic effect between the juvenile hormone mimicking compound and the pesticide (I), (II), or any agriculturally acceptable salt thereof in the formulated pesticidal composition. In this method, the percent insect control of the formulated pesticidal composition as observed in the study was compared to the “expected” percent control (E) as calculated by equation (1) (hereinafter “Colby's equation”) below: […]
Bioassays were performed for different active compounds. Cabbage plants with about two to three new-growth-true leaf stage were treated with different active compounds using a track sprayer application at 400 L/Ha spray volume. Three second instar diamondback moths, Plutella xylostella, were infested onto each leaf disc. The percent control of the pesticidal composition against diamondback moth, Plutella xylostella, was determined as the “Observed” action, and compared to those obtained by using about 0.0025 weight % of Compound II, and using about 0.000391 weight % of pyriproxyfen alone. The “Colby's Expected Action” was calculated using Colby's equation as discussed previously. […]
The percent control may be determined some time after treatment.

As for `CCN(C(=O)CC[S+]([O-])CCC(F)(F)F)c1cn(-c2cccnc2)nc1Cl` (centres unmarked) [Compound II, N-(3-chloro-1-(pyridin-3-yl)-1H-pyrazol-4-yl)-N-ethyl-3-((3,3,3-trifluoropropyl)sulfinyl)propanamide], the “% Control Three Days After Treatment” value was 0%.

As for `CCN(C(=O)CCSCCC(F)(F)F)c1cn(-c2cccnc2)nc1Cl` [Compound I, N-(3-chloro-1-(pyridin-3-yl)-1H-pyrazol-4-yl)-N-ethyl-3-((3,3,3-trifluoropropyl)thio)propanamide], the “% Control Three Days After Treatment” value was found to be 0%.
